According to PubChem BioAssay (NCI):
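1) Cells in 96-well plates. 2) Compound, 48 h, 5 concentrations. 3) Linear interpolation between surrounding doses. 4) Unreached endpoint = highest concentration. Abbreviation: GI50, concentration required for 50% inhibition of growth. TGI marks complete inhibition of growth.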 Where a SMILES comes first, the peptide text is derived from it. [ ]: non-standard residue; d: D form.

What was measured:
Assay in all cases: growth of human tumour cells (NCI), 48 h
NCI-H460 lung = test system: NCI-H460 lung
DU-145 prostate = test system: DU-145 prostate
NCI-H23 lung = test system: NCI-H23 lung
786-0 renal = test system: 786-0 renal
SK-MEL-28 melanoma = test system: SK-MEL-28 melanoma
A549 NSCLC = test system: A549 NSCLC
SW-620 colon = test system: SW-620 colon
HOP-92 NSCLC = test system: HOP-92 NSCLC
MDA-MB-231 breast = test system: MDA-MB-231 breast
MOLT-4 leukemia = test system: MOLT-4 leukemia
SNB-75 CNS = test system: SNB-75 CNS

Compound | TGI (NCI-H460 lung) | TGI (DU-145 prostate) | TGI (NCI-H23 lung) | TGI (786-0 renal) | TGI (SK-MEL-28 melanoma) | TGI (A549 NSCLC) | TGI (SW-620 colon) | TGI (HOP-92 NSCLC) | TGI (MDA-MB-231 breast) | TGI (MOLT-4 leukemia) | GI50 (NCI-H460 lung) | TGI (SNB-75 CNS)
C#CC1(O)CCCCCCCCC2(CCCCCCCC1)OCCO2 | 44.2 µM | 31.1 µM | 33.9 µM | 31.4 µM | 35.1 µM | 26.8 µM | 34.7 µM | 33.3 µM |  |  |  | 
Cc1cc(S(=O)(=O)/N=C(\[N-]S(=O)(=O)c2cc(Cl)sc2Cl)[n+]2ccc(N(C)C)cc2)c(S)cc1Cl | > 100 µM | > 100 µM | > 100 µM | > 100 µM | > 100 µM |  | > 100 µM |  | > 100 µM | > 100 µM |  | 
Cc1cnc2[nH]c(-c3ccc4ccccc4c3)cc(=O)c2c1 | > 100 µM | 27.9 µM |  | > 100 µM | > 100 µM | > 100 µM | > 100 µM |  |  | > 100 µM | 394 nM | > 100 µM
ClCCCCCc1c2nc(c(CCCCCCl)c3ccc([nH]3)c(CCCCCCl)c3ccc([nH]3)c(CCCCCCl)c3nc1C=C3)C=C2 | > 100 µM |  | > 100 µM | > 100 µM | > 100 µM | > 100 µM | > 100 µM | > 100 µM | > 100 µM | > 100 µM |  | > 100 µM
COc1ccccc1C1c2cc3c(cc2OC(N2CCOCC2)C1C)OCO3 (centres undefined) | 40.7 µM | 51.4 µM | 58.7 µM | 42.2 µM | 32.6 µM | 47.3 µM | 50.3 µM |  |  | 48.7 µM |  | 
CCN1CN(c2ccccc2)C2(CCN(CC(CC3OCCO3)c3ccc(F)cc3)CC2)C1=O (centres undefined) | 33 µM |  | > 57.3 µM | 39 µM | 40.5 µM | > 100 µM | > 40.4 µM | 10.3 µM | > 44.2 µM | > 67 µM |  | 93 µM
CC(=O)Nc1cccc(N=NN(C)C)c1 | > 100 µM |  | > 100 µM |  | > 100 µM | > 100 µM | > 100 µM | > 100 µM |  | > 100 µM |  | > 100 µM
Cc1ccc(N(C)S(=O)(=O)c2ccccc2[N+](=O)[O-])cc1 | > 100 µM | > 100 µM | > 100 µM | > 100 µM | > 100 µM | > 100 µM | > 100 µM |  | > 100 µM |  |  | 
Cc1n(Cc2ccccc2)nc2sc(N)n[n+]12 |  | > 100 µM | > 100 µM | > 100 µM | > 100 µM | > 100 µM | > 100 µM |  |  | > 100 µM |  | > 100 µM
CCOc1ccc(N/C(=C(/C(Cl)=C(/Cl)NC(C)(C)C)[N+](=O)[O-])n2nnc3ccccc32)cc1 | > 100 µM |  | 55.6 µM | 36.7 µM | 38.8 µM | > 100 µM | 41.9 µM |  | 37.6 µM | > 100 µM |  | 54 µM
COc1ccc(/C=C2\C[C@H]3[C@@H]4CCC5=CC(=O)CC[C@]5(C)[C@H]4CC[C@]3(C)C2=O)cc1OC | > 100 µM | > 100 µM | > 100 µM | > 100 µM | > 100 µM | > 100 µM | > 100 µM | > 100 µM |  | 44.6 µM |  | > 100 µM
CN1CC2CN(Cc3ccccc3)CCN2c2cccnc21 (centres undefined) | > 100 µM |  | > 100 µM | > 100 µM |  | > 100 µM | > 100 µM | > 100 µM | > 100 µM | > 100 µM |  | > 100 µM
N#Cc1c(-c2ccccc2)c(CN2CCCCC2)c(=O)n2c1[nH]c1ccccc12 | > 100 µM |  | > 100 µM | 95.6 µM | > 100 µM | > 100 µM | > 100 µM |  | > 100 µM | 45.4 µM |  | > 100 µM
N#Cc1c(O)c(/C=N/c2ncccn2)c(=O)n2c1[nH]c1ccccc12 | > 100 µM |  | > 100 µM | > 100 µM | > 100 µM | > 100 µM | > 100 µM | > 100 µM | > 100 µM | > 100 µM |  | > 100 µM
CC(Oc1ccc(OCC2CCCCC2)cc1)C(=O)NCc1ccco1 (centres undefined) | > 100 µM |  |  | > 100 µM | > 100 µM | > 100 µM |  |  |  | > 100 µM |  | > 100 µM
O=C1c2ccccc2N2Oc3ccccc3C12c1ccccc1 (centres undefined) |  |  | > 100 µM | > 100 µM | > 100 µM | > 100 µM | > 100 µM | > 100 µM |  | > 100 µM |  | > 100 µM
Nc1nc(-c2ccco2)cc(-c2ccc(CO)o2)n1 | > 100 µM |  | > 100 µM | > 100 µM | > 100 µM | > 100 µM | > 100 µM |  |  | > 100 µM |  | > 100 µM
CC(C)C[C@H](NC(=O)[C@H](CC(C)C)NC(=O)[C@@H](Cc1c[nH]c2ccccc12)NC(=O)[C@H](Cc1ccccc1)NC(=O)[C@@H](Cc1c[nH]c2ccccc12)NC(=O)[C@H](CCC(N)=O)NC(=O)[C@H](CCC(N)=O)NC(=O)[C@H]1CCCN1C(=O)[C@@H](N)CCCCN)C(N)=O (H-K[dP]QQ[dW]F[dW]LL-NH2) | > 100 µM |  | > 100 µM |  | > 100 µM | > 100 µM | > 100 µM | > 100 µM |  | > 100 µM |  | > 100 µM
